Laboratory results from PMC10069231 (RSC Advances, 2023).
“And” between values parts separate entries of the source, which are not always exact repeats. Equal entries are not always repeated. Where two headings read alike, the source gives them in different places.

Experiments:
Caco-2 cell line [1] = assay: MTT cytotoxicity assay, Caco-2; settings: read-out: In vitro cytotoxic activity IC50 Caco-2
HepG-2 cell line = assay: MTT cytotoxicity assay, HepG-2; format: cell-based, human; settings: read-out: In vitro cytotoxic activity IC50 HepG-2
EGFR^Wt = EGFR^Wt (Homo sapiens, UniProt P00533); assay: EGFR kinase assay kit; format: biochemical; settings: for IC50: Enzyme inhibitory activity IC50 EGFR^Wt, average of three independent tests; for inhibition at 10 µM: read-out: EGFR^Wt Inhibitory%
EGFR^Wt, sequence (P00533 25-1210): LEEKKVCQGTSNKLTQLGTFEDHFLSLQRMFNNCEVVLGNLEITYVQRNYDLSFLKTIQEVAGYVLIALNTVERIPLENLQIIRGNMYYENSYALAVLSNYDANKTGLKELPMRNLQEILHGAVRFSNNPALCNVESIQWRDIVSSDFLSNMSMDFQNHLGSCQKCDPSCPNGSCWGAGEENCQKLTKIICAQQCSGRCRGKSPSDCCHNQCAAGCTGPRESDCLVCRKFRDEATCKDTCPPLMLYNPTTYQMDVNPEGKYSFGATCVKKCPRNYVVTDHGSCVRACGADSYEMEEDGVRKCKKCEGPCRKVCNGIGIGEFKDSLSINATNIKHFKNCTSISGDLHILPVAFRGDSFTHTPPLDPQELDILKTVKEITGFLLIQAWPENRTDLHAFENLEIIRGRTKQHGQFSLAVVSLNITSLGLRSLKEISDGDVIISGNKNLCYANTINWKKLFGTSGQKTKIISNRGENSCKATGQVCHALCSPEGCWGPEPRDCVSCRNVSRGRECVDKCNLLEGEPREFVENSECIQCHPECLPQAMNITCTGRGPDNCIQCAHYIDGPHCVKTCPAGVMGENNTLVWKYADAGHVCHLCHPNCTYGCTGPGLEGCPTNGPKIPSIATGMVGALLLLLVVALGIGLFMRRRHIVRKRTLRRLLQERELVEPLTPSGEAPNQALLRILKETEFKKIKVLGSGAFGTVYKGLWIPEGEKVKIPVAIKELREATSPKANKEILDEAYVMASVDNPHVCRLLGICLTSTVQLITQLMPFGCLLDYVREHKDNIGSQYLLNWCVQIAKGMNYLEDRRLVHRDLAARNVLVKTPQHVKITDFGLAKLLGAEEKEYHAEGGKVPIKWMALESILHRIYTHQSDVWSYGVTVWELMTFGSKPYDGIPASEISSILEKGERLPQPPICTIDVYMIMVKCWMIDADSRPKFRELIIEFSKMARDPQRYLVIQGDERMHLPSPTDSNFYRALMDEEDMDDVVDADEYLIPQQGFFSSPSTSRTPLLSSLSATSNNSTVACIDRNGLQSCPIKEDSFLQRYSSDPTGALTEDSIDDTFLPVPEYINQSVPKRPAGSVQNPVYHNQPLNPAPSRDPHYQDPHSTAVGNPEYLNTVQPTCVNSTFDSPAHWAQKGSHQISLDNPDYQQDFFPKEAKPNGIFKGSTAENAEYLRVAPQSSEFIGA

Caco-2 cell line [2] = assay: Flow cytometry cell cycle analysis; format: cell-based, human; settings: Caco-2, treated at IC50 7.83 μM
Caco-2 cells = assay: Annexin-V/propidium iodide apoptosis assay; format: cell-based, human
VEGFR-2 = VEGFR-2 (Homo sapiens, UniProt P35968); assay: biochemical
VEGFR-2, sequence (P35968 20-1356): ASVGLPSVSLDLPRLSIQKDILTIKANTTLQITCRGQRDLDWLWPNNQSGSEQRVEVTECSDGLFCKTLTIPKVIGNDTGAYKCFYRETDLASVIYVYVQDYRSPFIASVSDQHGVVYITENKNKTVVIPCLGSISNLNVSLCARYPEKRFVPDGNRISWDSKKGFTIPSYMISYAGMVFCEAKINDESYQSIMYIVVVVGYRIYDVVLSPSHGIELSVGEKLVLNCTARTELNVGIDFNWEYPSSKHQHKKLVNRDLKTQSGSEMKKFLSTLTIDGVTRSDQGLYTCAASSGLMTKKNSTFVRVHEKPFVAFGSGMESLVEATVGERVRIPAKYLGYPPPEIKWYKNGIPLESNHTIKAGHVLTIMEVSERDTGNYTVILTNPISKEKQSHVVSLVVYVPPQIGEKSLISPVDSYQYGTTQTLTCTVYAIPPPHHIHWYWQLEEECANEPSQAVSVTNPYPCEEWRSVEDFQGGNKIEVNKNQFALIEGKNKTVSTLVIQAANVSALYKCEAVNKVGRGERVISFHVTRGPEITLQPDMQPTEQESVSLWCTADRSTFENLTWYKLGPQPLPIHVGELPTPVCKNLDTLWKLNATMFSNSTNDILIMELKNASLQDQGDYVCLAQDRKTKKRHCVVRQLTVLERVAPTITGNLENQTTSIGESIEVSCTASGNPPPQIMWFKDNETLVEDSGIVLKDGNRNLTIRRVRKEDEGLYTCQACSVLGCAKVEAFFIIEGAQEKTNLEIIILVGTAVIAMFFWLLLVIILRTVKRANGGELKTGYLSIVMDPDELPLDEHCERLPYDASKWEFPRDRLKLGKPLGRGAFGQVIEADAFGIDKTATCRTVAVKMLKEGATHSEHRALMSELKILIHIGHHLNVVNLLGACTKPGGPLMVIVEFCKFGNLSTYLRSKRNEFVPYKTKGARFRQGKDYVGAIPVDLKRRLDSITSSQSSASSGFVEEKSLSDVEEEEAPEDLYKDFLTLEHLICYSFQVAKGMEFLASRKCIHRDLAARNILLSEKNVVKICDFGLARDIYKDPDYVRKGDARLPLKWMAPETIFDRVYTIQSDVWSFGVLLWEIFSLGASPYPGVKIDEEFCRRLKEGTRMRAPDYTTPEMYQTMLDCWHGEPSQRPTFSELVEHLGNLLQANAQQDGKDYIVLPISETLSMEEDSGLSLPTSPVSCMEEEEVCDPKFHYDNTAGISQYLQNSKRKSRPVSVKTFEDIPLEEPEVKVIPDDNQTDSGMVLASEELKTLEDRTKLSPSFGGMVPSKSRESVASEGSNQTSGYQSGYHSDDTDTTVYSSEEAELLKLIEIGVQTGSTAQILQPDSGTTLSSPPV

Row | Molecule | IC50 (Caco-2 cell line [1]; Homo sapiens, Caco-2, 24 h) | IC50 (HepG-2 cell line; Homo sapiens, HepG2, 24 h) | further results
1 | CCOC(=O)c1ccc(-n2c(C)cc(/C=C/c3ccc(OCC)cc3)c(C#N)c2=O)cc1 [Compound 3b, Ethyl (E)-4-(3-cyano-4-(4-ethoxystyryl)-6-methyl-2-oxopyridin-1(2H)-yl)benzoate] | 75.7 ± 3.5 µM | 63.1 ± 3.4 µM | 
2 | CCOC(=O)c1ccc(-n2c(C)cc(C)c(C#N)c2=O)cc1 [Compound 2, ethyl 4-(3-cyano-4,6-dimethyl-2-oxopyridin-1(2H)-yl)benzoate] | 41.5 ± 2.5 µM | 51.6 ± 2.9 µM | 
3 | CCOC(=O)C1=C(N)N(c2ccc(C(=O)OCC)cc2)C(O)=C(C#N)C12C(=O)Nc1ccccc12 (stereo not shown) [Compound 8, Ethyl 2′-amino-5′-cyano-1′-(4-(ethoxycarbonyl)phenyl)-6′-hydroxy-2-oxo-1′H spiro[indoline-3,4′-pyridine]-3′-carboxylate] | 13.6 ± 1.2 µM | 8.42 ± 0.7 µM | 
4 | CCOC(=O)c1ccc(NC(=O)C2=C3C(=Nc4ccccc43)NC2=O)cc1 [Compound 6, ethyl 4-(2-oxo-1,2-dihydropyrrolo[2,3-b]indole-3-carboxamido)benzoate] | 45.4 ± 2.7 µM | 39.3 ± 2.5 µM | 
5 | CCOC(=O)c1ccc(-n2c(C)cc(/C=C/c3ccc(OC)cc3)c(C#N)c2=O)cc1 [Compound 3a, Ethyl (E)-4-(3-cyano-4-(4-methoxystyryl)-6-methyl-2-oxopyridin-1(2H)-yl)benzoate] | 84.4 ± 4 µM | 78.2 ± 3.8 µM | 
6 | CCOC(=O)c1ccc(-n2c(N)c(C#N)c(CC#N)c(C#N)c2=O)cc1 [Compound 10, ethyl 4-(6-amino-3,5-dicyano-4-(cyanomethyl)-2-oxopyridin-1(2H)-yl)benzoate] | 37.8 ± 2.3 µM | 25.2 ± 1.9 µM | 
7 | CCOC(=O)c1ccc(N2C(N)=C(C#N)C3(C(=O)Nc4ccccc43)C(C#N)=C2O)cc1 (stereo not shown) [Compound 7, Ethyl 4-(2′-amino-3′,5′-dicyano-6′-hydroxy-2-oxo-1′H-spiro[indoline-3,4′-pyridin]-1′-yl)benzoate] | 7.83 ± 0.5 µM | 8.9 ± 0.6 µM | IC50 (EGFR^Wt): < 250 nM and 124 nM; inhibition at 10 µM (EGFR^Wt): 88.4%; Cell cycle distribution, S phase (Caco-2 cell line [2]; untreated 31.18%): 42.07%; Cell cycle distribution, G0-G1 (Caco-2 cell line [2]; untreated 54.69%): 51.08%; Cell cycle distribution, G2/M (Caco-2 cell line [2]; untreated […]%): 6.85%; Early apoptosis, increase compared to the control (Caco-2 cells; Caco-2, at IC50): 67.60 folds; Late apoptosis, increase compared to the control (Caco-2 cells; Caco-2, at IC50): 100.11 folds; Apoptosis Late (Caco-2 cells; Caco-2, at IC50 for 24 h, control 0.17): 17.02%; Apoptosis Early (Caco-2 cells; Caco-2, at IC50 for 24 h, control 0.33): 22.31%; Necrosis (Caco-2 cells; Caco-2, at IC50 for 24 h, control 1.42): 3.02%; Apoptosis Total (Caco-2 cells; Caco-2, at IC50 for 24 h, control 1.92): 42.35%; IC50 (VEGFR-2; Enzyme inhibitory activity IC50 VEGFR-2, average of three independent tests): 221 ± 9 nM; inhibition at 10 µM (VEGFR-2; read-out: VEGFR-2 Inhibitory%): 87%
8 | COc1cccc2c1C(=O)c1c(O)c3c(c(O)c1C2=O)C[C@@](O)(C(=O)CO)C[C@@H]3O[C@H]1C[C@H](N)[C@H](O)[C@H](C)O1 [Doxorubicin, reference compound] |  | 4.5 ± 0.2 µM | IC50 (EGFR^Wt): 349 ± 16 nM; inhibition at 10 µM (EGFR^Wt): 77.6%
9 | CCOC(=O)c1ccc(-n2c(-c3ccc(C)cc3)cc(-c3ccc(O)cc3)c(C#N)c2=O)cc1 [Compound 11, Ethyl 4-(3-cyano-4-(4-hydroxyphenyl)-2-oxo-6-(p-tolyl)pyridin-1(2H)-yl)benzoate] | 19.2 ± 1.4 µM | 14.9 ± 1.2 µM | 
10 | ethyl 4-(3′,5′-dicyano-2′,6′-dihydroxy-1,3-dioxo-1,3-dihydro-1′H-spiro[indene-2,4′-pyridin]-1′-yl)benzoate [Compound 5] |  |  | IC50 (Caco-2 cell line [1]; MTT, 24 h incubation, Caco-2): 9.78 ± 0.7 µM; IC50 (HepG-2 cell line; MTT, 24 h incubation, HepG-2): 10.6 ± 0.8 µM
